This note sets out measurements from patent US20220387602A1, “BIFUNCTIONAL DEGRADERS AND THEIR METHODS OF USE” (NOVARTIS AG, priority 2019, published 2022).

Where two headings read alike, the source gives them in different places.

One experiment has as its target CRBN (Homo sapiens, UniProt Q96SW2). Put plainly: CRBN displacement assay Format 2a (fluorescence polarization, 1536-well, Envision reader). The note with it: for CRBN Amax* (% at 50 μM) Format 2a: greatest effect as % displacement of the reference probe at the highest concentration tested (50 μM), given where AC50 >50 μM. It counts as binding. Here is the method:
Compounds were tested in the following biochemical and cellular assays.
BodipyFL conjugated lenalidomide compound HH was used as a fluorescent probe. […] Protein and substrate were diluted in assay buffer.
The fluorescence of the Bodipy FL-based probe was excited at 480 nm and the emissions of the product were measured at 535 nm. The fluorescence in each well was excited by 30 flashes per measurement.
For the determination of AC50 values, assays were performed at room temperature in 1536-well plates with a total assay volume of 6.03 μL per well. The test compounds were dissolved and diluted in 100% DMSO. For the assays, 30 nL of DMSO or compound solution were added per well, followed by the addition of 3 μL protein solution (80 nM protein in 1× assay buffer).
The final assay concentration of the protein was nominally 40 nM. After 45 minutes of pre-incubation at room temperature, the competition for binding was started by the addition of 3 μL probe solution (10 nM probe dissolved in assay buffer). The final concentration of the probe in the assays was 5 nM. After the addition of the probe solution, the final DMSO concentration in the assay was 0.5% (v/v). The effect of the probe on the pre-established compound-protein complex equilibrium was determined after 45 minutes (t=45 min). The AC50 value was calculated from the plot of percentage of protein saturation versus the test compound concentration by a logistics fit according to: y=A^2+(A^1−A^2)/(1+(x/AC50)^p), where y is the %-saturation value at the test compound concentration, x. A^1 is the lowest saturation value, i.e., 0%, and A^2 the maximum saturation value, i.e. 100%. The exponent, p, is the Hill coefficient.
(Fluorescence polarisation rises when a labelled molecule tumbles more slowly, as on binding a larger partner.)

Another experiment concerns the target T1, BTK (Homo sapiens, UniProt Q06187).
T1 construct: the BTK open reading frame (ORF) was first shuttled from a pcDNA-DEST40-BTK vector; expressed in transfected cells; host or cells: HEK293A (Invitrogen R70507), lentiviral transduction, blasticidin selection
The experiment can be described thus: BTK-GFP protein abundance flow cytometry assay in HEK293A. The format is cell-based. The note with it: 24 h. Here is the method:
Degradation of BTK, CSK, ABL2, EPHA4 and YES1 was measured in HEK293A cells (Invitrogen R70507) expressing either BTK-GFP and RFP, CSK-GFP and mCherry, GFP-ABL2 and mCherry, EPHA4-GFP and mCherry, or YES1-GFP and mCherry from a stably integrated bicistronic BTK-GFP-iresRFP, CSK-GFP-CHYSEL-mCherry, GFP-ABL2-CHYSEL-mCherry, EPHA4-GFP-CHYSEL-mCherry, or YES1-GFP-CHYSEL-mCherry construct, respectively. Reduction of the GFP signal measured by flow cytometry served as readout for BTK, CSK, ABL2, EPHA4 and YES1 degradation after degrader treatment.
The mix was incubated for another 20 min at RT and then added on 1 mL of a freshly prepared suspension of HEK293FT cells in a well of a 6-well plate (concentration 1.2×10^6 cells/mL). 1 day after transfection, the medium was replaced with 1.5 mL of complete growth medium (DMEM high Glucose+10% FCS+1% L-Glutamine+1% NEAA+1% NaPyr.). 48 h post transfection supernatant containing viral transducing particles was collected and frozen at −80° C.
Infection was performed with 90 μL of collected supernatant containing viral transducing particles in 1 mL medium including 8 µg/mL polybrene. 24 h post infection, stably transfected cells were selected with blasticidin at a concentration of 8 μg/mL referred to as stable HEK293A sensor cells.
Stable HEK293A sensor cells were maintained in complete growth medium (DMEM high Glucose+10% FCS+1% L-Glutamine+1% NEAA+1% NaPyr.) with passaging performed twice per week. On Day 0, stable HEK293A sensor cells were seeded at 10,000 cells/well in a 96-well microtiter plate in 260 μL complete medium. On Day 1, cells were treated in duplicate with 10-point 1:3 dilution series of compound using the HP D300 Digital Dispenser (Tecan). DMSO concentrations were normalized across the plate to 0.1%. On Day 2, after 24 h of incubation at 37° C., treatment media was discarded, cells rinsed with 100 μL/well PBS and then detached using 40 μL trypsin/well for 5 min. Trypsin was neutralized with 100 μL/well PBS+20% FCS). Flow cytometry was performed on the samples using the BD FACS CANTO II (Becton Dickinson). Cell identification was then performed using forward (FSC) vs. side scatter (SSC) plots. Single cell discrimination is performed using SSC-Width (SSC-W) vs. SSC-Height (SSC-H) plots. Median GFP values for 5,000 single cells are used to determine BTK levels. Median GFP values from HEK293 Å-iresRFP are used as a background signal and thus defining 0% BTK signal. Median GFP values from DMSO treated HEK293 Å-BTK-GFP-iresRFP are used to define 100% BTK signal for subsequent DC50 curves (concentration at 50% BTK degradation). GFP and RFP are read in the channels called FITC and PE, respectively.
Concentration response curves plotting relative reduction of the GFP signal (measured by flow cytometry) versus 10 compound concentrations (starting concentration 10 μM, 3 fold dilution steps) of the compounds allowed generation of DC50 values. Protein abundance measured for the second generation vectors having a chysel was done in close analogy to the above described method for measuring BTK abundance.
Table 5 columns are defined as follows: DC50 refers to the concentration at which 50% maximal degradation was observed; deg Amax is the extent of degradation and the value refers to the % protein remaining at the concentration at which maximum degradation is seen.
(In flow cytometry, cells or beads pass a laser one at a time.)

Where [1] appears, read: concentration at which 50% of reference probe Compound HH is displaced, 40 nM protein, 5 nM probe, read-out: CRBN AC50 [μM] Format 2a.

Sequence of CRBN (Q96SW2 whole entry): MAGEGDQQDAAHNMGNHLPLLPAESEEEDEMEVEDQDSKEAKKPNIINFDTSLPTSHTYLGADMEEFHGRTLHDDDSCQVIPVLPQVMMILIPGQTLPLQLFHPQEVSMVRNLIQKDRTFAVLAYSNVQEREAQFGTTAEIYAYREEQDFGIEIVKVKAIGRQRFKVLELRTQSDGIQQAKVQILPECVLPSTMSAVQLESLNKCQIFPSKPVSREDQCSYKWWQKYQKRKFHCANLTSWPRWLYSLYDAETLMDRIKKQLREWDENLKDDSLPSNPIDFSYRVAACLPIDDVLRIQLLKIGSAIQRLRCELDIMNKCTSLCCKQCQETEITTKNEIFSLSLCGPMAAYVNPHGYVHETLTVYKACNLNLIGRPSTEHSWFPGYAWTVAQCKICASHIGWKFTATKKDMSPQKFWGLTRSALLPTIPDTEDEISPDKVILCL
T1 sequence (Q06187 whole entry): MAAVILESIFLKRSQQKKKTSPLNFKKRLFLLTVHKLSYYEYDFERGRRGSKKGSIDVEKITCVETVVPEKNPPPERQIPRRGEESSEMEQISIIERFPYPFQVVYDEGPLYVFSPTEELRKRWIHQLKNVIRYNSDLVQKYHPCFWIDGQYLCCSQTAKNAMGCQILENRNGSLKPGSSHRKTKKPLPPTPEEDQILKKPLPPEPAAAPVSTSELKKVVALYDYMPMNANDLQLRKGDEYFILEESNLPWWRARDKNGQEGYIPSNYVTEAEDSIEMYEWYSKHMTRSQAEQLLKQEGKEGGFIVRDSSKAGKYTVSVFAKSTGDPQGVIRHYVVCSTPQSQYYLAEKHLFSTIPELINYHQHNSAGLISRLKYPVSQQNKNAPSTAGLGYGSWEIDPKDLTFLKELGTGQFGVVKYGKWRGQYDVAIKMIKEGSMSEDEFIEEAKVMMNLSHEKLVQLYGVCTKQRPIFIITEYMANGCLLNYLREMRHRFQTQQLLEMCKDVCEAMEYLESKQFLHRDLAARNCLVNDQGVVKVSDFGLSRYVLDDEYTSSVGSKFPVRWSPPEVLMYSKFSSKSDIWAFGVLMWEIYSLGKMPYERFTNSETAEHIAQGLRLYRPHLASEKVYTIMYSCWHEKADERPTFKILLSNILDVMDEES

In the case of “1-((4-bromo-1H-pyrazol-5-yl)methyl)dihydropyrimidine-2,4(1H,3H)-dione [ILB-88]”, on CRBN (setting [1]), the AC50 (usually the concentration at which the activity in the assay is half-maximal) is more than 50 µM. Further, on CRBN, the “CRBN Amax* (% at 50 μM) Format 2a” value was determined as 37%.
Turning to `Cc1c(NC(=O)c2ccc(C(C)(C)O)cc2F)cc(F)cc1-c1ncnc2[nH]c(-c3ccc(CN4CCN(CCN5CCC(Oc6ccc(N7CCC(=O)NC7=O)cc6)CC5)CC4)cc3)cc12` [Compound 28, N-(3-(6-(4-((4-(2-(4-(4-(2,4-dioxotetrahydropyrimidin-1(2H)-yl)phenoxy)piperidin-1-yl)ethyl)piperazin-1-yl)methyl)phenyl)-7H-pyrrolo[2,3-d]pyrimidin-4-yl)-5-fluoro-2-methylphenyl)-2-fluoro-4-(2-hydroxypropan-2-yl)benzamide], on BTK (% protein remaining at the concentration at which maximum degradation is seen, HEK293A), the “BTK degradation Amax” value is 40%. Moreover, the DC50 (in general, the concentration at which degradation of the target reaches its halfway point) at BTK (concentration at which 50% maximal degradation was observed, HEK293A BTK-GFP sensor cells) came out at 0.0092 µM.
The compound `COc1ccc(C(=O)O)cc1CN1CCC(=O)NC1=O` [ILB-9, 3-((2,4-Dioxotetrahydropyrimidin-1(2H)-yl)methyl)-4-methoxybenzoic acid] came in with an AC50 on CRBN of more than 50 µM. In addition, on CRBN (45 min), the “CRBN Amax* (% at 50 μM) Format 2a” value is recorded as 1%.
Consider `C[Si](C)(C)CCOCN1C(=O)CCN(Cc2cccc(C=O)c2)C1=O` [ILB-10, 3-((2,4-Dioxo-3-((2-(trimethylsilyl)ethoxy)methyl)tetrahydropyrimidin-1(2H)-yl)methyl)benzaldehyde], for which, at CRBN (setting [1]), the AC50 is more than 50 µM. Moreover, the “CRBN Amax* (% at 50 μM) Format 2a” value at CRBN (45 min) came out at 0%.
Consider `Cc1cc(O)ccc1N1CCC(=O)NC1=O` [ILB-13, 1-(4-hydroxy-2-methylphenyl)dihydropyrimidine-2,4(1H,3H)-dione], for which the AC50 on CRBN is 2.42 µM.
As to `O=C(O)COc1ccc(Cl)c(N2CCC(=O)NC2=O)c1` [ILB-17, 2-(4-Chloro-3-(2,4-dioxotetrahydropyrimidin-1(2H)-yl)phenoxy)acetic acid], on CRBN (setting [1]), the concentration at half-maximal activity (AC50) is 3.41 µM.
On the same count and under the same terms, the result for `O=C1CCN(c2cc(C(=O)O)ccc2O)C(=O)N1` [ILB-22, 3-(2,4-Dioxotetrahydropyrimidin-1(2H)-yl)-4-hydroxybenzoic acid] reads 0.69 µM; that for `O=C1CCN(c2ccc(C#CCCCI)cc2)C(=O)N1` [ILB-39, 1-(4-(5-iodopent-1-yn-1-yl)phenyl)dihydropyrimidine-2,4(1H,3H)-dione], 3.15 µM; that for `NCCC#Cc1ccc(N2CCC(=O)NC2=O)cc1` [ILB-44, 1-(4-(4-aminobut-1-yn-1-yl)phenyl)dihydropyrimidine-2,4(1H,3H)-dione], 5.43 µM.
In the case of `O=C1CCN(c2ccc(C#CCN3CCC(n4cc(Br)cn4)CC3)cc2)C(=O)N1` [ILB-49, 1-(4-(3-(4-(4-bromo-1H-pyrazol-1-yl)piperidin-1-yl)prop-1-yn-1-yl)phenyl)dihydropyrimidine-2,4(1H,3H)-dione], the AC50 at CRBN (setting [1]) turned out to be 3.36 µM.
On to `CCOC(COc1ccc(N2CCC(=O)NC2=O)c(Cl)c1)OCC` [ILB-61, 1-(2-chloro-4-(2,2-diethoxyethoxy)phenyl)dihydropyrimidine-2,4(1H,3H)-dione], for which, on CRBN (setting [1]), the half-maximal activity concentration (AC50) was found to be 3.44 µM.
Compound `O=C(O)Cn1cc(N2CCC(=O)NC2=O)cn1` [ILB-65, 2-(4-(2,4-Dioxotetrahydropyrimidin-1(2H)-yl)-1H-pyrazol-1-yl)acetic acid] came in with an AC50 at CRBN of 26.1 µM.
Compound `O=C(O)CCn1cc(N2CCC(=O)NC2=O)cn1` [ILB-66, 3-(4-(2,4-Dioxotetrahydropyrimidin-1(2H)-yl)-1H-pyrazol-1-yl)propanoic acid] showed an AC50 at CRBN of more than 50 µM. On CRBN (45 min), the “CRBN Amax* (% at 50 μM) Format 2a” value worked out at 46%.
For `NCCN1CCC(Oc2ccc(N3CCC(=O)NC3=O)cc2)CC1` [ILB-68, 1-(4-((1-(2-aminoethyl)piperidin-4-yl)oxy)phenyl)dihydropyrimidine-2,4(1H,3H)-dione], on CRBN (setting [1]), the AC50 came out at 4.7 µM.
For the compound `CCOC(=O)c1cnc(C)c(N2CCC(=O)NC2=O)c1` [ILB-82, ethyl 5-(2,4-dioxotetrahydropyrimidin-1(2H)-yl)-6-methylnicotinate], on CRBN (setting [1]), the concentration at half-maximal activity (AC50) was found to be 29.8 µM.
`O=C1CCN(Cc2sccc2Br)C(=O)N1` [ILB-83, 1-((3-bromothiophen-2-yl)methyl)dihydropyrimidine-2,4(1H,3H)-dione] showed a concentration at half-maximal activity (AC50) on CRBN of 45.6 µM.
With `O=C1CCN(Cc2cc(C(F)(F)F)[nH]n2)C(=O)N1` [ILB-84, 1-((5-(trifluoromethyl)-1H-pyrazol-3-yl)methyl)dihydropyrimidine-2,4(1H,3H)-dione], on CRBN, the AC50 stood at 33.3 µM.
Consider `Cn1cc(Br)c(CN2CCC(=O)NC2=O)n1` [ILB-85, 1-((4-bromo-1-methyl-1H-pyrazol-3-yl)methyl)dihydropyrimidine-2,4(1H,3H)-dione], for which, at CRBN, the AC50 is more than 50 µM. For the same compound, the “CRBN Amax* (% at 50 μM) Format 2a” value at CRBN (45 min) was found to be 47%.
At CRBN, `O=C1CCN(Cc2nc(C(=O)O)cs2)C(=O)N1` [ILB-87, 2-((2,4-dioxotetrahydropyrimidin-1(2H)-yl)methyl)thiazole-4-carboxylic acid] registered a half-maximal activity concentration (AC50) of 5.34 µM.
The compound `O=C1CCN(Cc2ccncc2Br)C(=O)N1` [ILB-89, 1-((3-bromopyridin-4-yl)methyl)dihydropyrimidine-2,4(1H,3H)-dione] displayed an AC50 on CRBN of 16.7 µM.
With `O=C1CCN(Cc2ncc(Br)cn2)C(=O)N1` [ILB-90, 1-((5-bromopyrimidin-2-yl)methyl)dihydropyrimidine-2,4(1H,3H)-dione], the AC50 at CRBN was more than 50 µM. Further, the “CRBN Amax* (% at 50 μM) Format 2a” value on CRBN (45 min) is reported as 40%.
On CRBN, `O=C1CCN(Cc2cc(Cl)ccn2)C(=O)N1` [ILB-91, 1-((4-chloropyridin-2-yl)methyl)dihydropyrimidine-2,4(1H,3H)-dione] gave a half-maximal activity concentration (AC50) of 5.22 µM.
On to `O=C1CCN(Cc2cc(Br)ccn2)C(=O)N1` [ILB-92, 1-((4-bromopyridin-2-yl)methyl)dihydropyrimidine-2,4(1H,3H)-dione], for which the activity on CRBN was half-maximal at 1.85 µM (AC50).
Same read-out and setting: the result for `Nc1ncc(Br)cc1CN1CCC(=O)NC1=O` [ILB-93, 1-((2-amino-5-bromopyridin-3-yl)methyl)dihydropyrimidine-2,4(1H,3H)-dione] reads 10.9 µM; that for `O=C1CCN(Cc2cccn(C3CCN(C(=O)OCc4ccccc4)CC3)c2=O)C(=O)N1` [ILB-94, Benzyl-4-(3-((2,4-dioxotetrahydropyrimidin-1(2H)-yl)methyl)-2-oxopyridin-1(2H)-yl)piperidine-1-carboxylate], 4.95 µM.
